Results taken from ChEMBL document CHEMBL4346657, “Anticancer activity, dual prooxidant/antioxidant effect and apoptosis induction profile of new bichalcophene-5-carboxamidines” (Eur J Med Chem, 2019).
Calls of active or inactive are those of the source. The rule behind the calls is not given here.

Tests used:
UO-31 = test: Antiproliferative activity against human UO31 cells assessed as growth inhibition after 48 hrs by sulforhodamine B assay; format: functional; conditions: UO-31, 48 h
TK-10 = test: Antiproliferative activity against human TK10 cells assessed as growth inhibition after 48 hrs by sulforhodamine B assay; format: functional; conditions: TK-10, 48 h
PC-3 = test: Antiproliferative activity against human PC3 cells assessed as growth inhibition after 48 hrs by sulforhodamine B assay; format: functional; conditions: PC-3, 48 h
OVCAR-3 = test: Antiproliferative activity against human OVCAR3 cells assessed as growth inhibition after 48 hrs by sulforhodamine B assay; format: functional; conditions: OVCAR-3, 48 h
MCF7 = test: Antiproliferative activity against human MCF7 cells assessed as growth inhibition after 48 hrs by sulforhodamine B assay; format: functional; conditions: MCF7, 48 h
[1] = system: Panel NCI-60 (60 carcinoma cell lines); test: Antiproliferative activity against human NCI60 cells assessed as growth inhibition at 10 uM after 48 hrs by sulforhodamine B assay; format: functional; conditions: read-out: GI
DU-145 = test: Antiproliferative activity against human DU145 cells assessed as growth inhibition after 48 hrs by sulforhodamine B assay; format: functional; conditions: DU-145, 48 h
ACHN = test: Antiproliferative activity against human ACHN cells assessed as growth inhibition after 48 hrs by sulforhodamine B assay; format: functional
A498 = test: Antiproliferative activity against human A498 cells assessed as growth inhibition after 48 hrs by sulforhodamine B assay; format: functional; conditions: A498, 48 h
SK-OV-3 = test: Antiproliferative activity against human SKOV3 cells assessed as growth inhibition after 48 hrs by sulforhodamine B assay; format: functional; conditions: SK-OV-3, 48 h
NCI/ADR-RES = test: Antiproliferative activity against human NCI-ADR-RES cells assessed as growth inhibition after 48 hrs by sulforhodamine B assay; format: functional
OVCAR-8 = test: Antiproliferative activity against human OVCAR8 cells assessed as growth inhibition after 48 hrs by sulforhodamine B assay; format: functional; conditions: OVCAR-8, 48 h
OVCAR-4 = test: Antiproliferative activity against human OVCAR4 cells assessed as growth inhibition after 48 hrs by sulforhodamine B assay; format: functional; conditions: OVCAR-4, 48 h
UACC-62 = test: Antiproliferative activity against human UACC62 cells assessed as growth inhibition after 48 hrs by sulforhodamine B assay; format: functional; conditions: UACC-62, 48 h
SK-MEL-2 = test: Antiproliferative activity against human SK-MEL-2 cells assessed as growth inhibition after 48 hrs by sulforhodamine B assay; format: functional; conditions: SK-MEL-2, 48 h
MDA-MB-435 = test: Antiproliferative activity against human MDA-MB-435 cells assessed as growth inhibition after 48 hrs by sulforhodamine B assay; format: functional; conditions: MDA-MB-435, 48 h
Malme-3M = test: Antiproliferative activity against human MALME-3M cells assessed as growth inhibition after 48 hrs by sulforhodamine B assay; format: functional
U-251 = test: Antiproliferative activity against human U251 cells assessed as growth inhibition after 48 hrs by sulforhodamine B assay; format: functional; conditions: U-251, 48 h
SNB-75 = test: Antiproliferative activity against human SNB75 cells assessed as growth inhibition after 48 hrs by sulforhodamine B assay; format: functional; conditions: SNB-75, 48 h
SF-295 = test: Antiproliferative activity against human SF295 cells assessed as growth inhibition after 48 hrs by sulforhodamine B assay; format: functional; conditions: SF-295, 48 h
SF-268 = test: Antiproliferative activity against human SF268 cells assessed as growth inhibition after 48 hrs by sulforhodamine B assay; format: functional; conditions: SF-268, 48 h
SW-620 = test: Antiproliferative activity against human SW620 cells assessed as growth inhibition after 48 hrs by sulforhodamine B assay; format: functional; conditions: SW-620, 48 h
HT-29 = test: Antiproliferative activity against human HT-29 cells assessed as growth inhibition after 48 hrs by sulforhodamine B assay; format: functional; conditions: HT-29, 48 h
HCT-116 [2] = test: Antiproliferative activity against human HCT116 cells assessed as growth inhibition after 48 hrs by sulforhodamine B assay; format: functional; conditions: HCT-116, 48 h
COLO 205 = test: Antiproliferative activity against human COLO205 cells assessed as growth inhibition after 48 hrs by sulforhodamine B assay; format: functional; conditions: COLO 205, 48 h
NCI-H522 = test: Antiproliferative activity against human NCI-H522 cells assessed as growth inhibition after 48 hrs by sulforhodamine B assay; format: functional; conditions: NCI-H522, 48 h
NCI-H460 = test: Antiproliferative activity against human NCI-H460 cells assessed as growth inhibition after 48 hrs by sulforhodamine B assay; format: functional; conditions: NCI-H460, 48 h
NCI-H322M = test: Antiproliferative activity against human NCI-H322M cells assessed as growth inhibition after 48 hrs by sulforhodamine B assay; format: functional
NCI-H226 = test: Antiproliferative activity against human NCI-H226 cells assessed as growth inhibition after 48 hrs by sulforhodamine B assay; format: functional; conditions: NCI-H226, 48 h
HOP-62 = test: Antiproliferative activity against human HOP62 cells assessed as growth inhibition after 48 hrs by sulforhodamine B assay; format: functional; conditions: HOP-62, 48 h
EKVX = test: Antiproliferative activity against human EKVX cells assessed as growth inhibition after 48 hrs by sulforhodamine B assay; format: functional
RPMI-8226 = test: Antiproliferative activity against human RPMI8226 cells assessed as growth inhibition after 48 hrs by sulforhodamine B assay; format: functional; conditions: RPMI-8226, 48 h
K562 = test: Antiproliferative activity against human K562 cells assessed as growth inhibition after 48 hrs by sulforhodamine B assay; format: functional, cell-based; conditions: K562, 48 h, read-out: IC50
CCRF-CEM = test: Antiproliferative activity against human CCRF-CEM cells assessed as growth inhibition after 48 hrs by sulforhodamine B assay; format: functional
Hs-578T = test: Antiproliferative activity against human Hs578T cells assessed as growth inhibition after 48 hrs by sulforhodamine B assay; format: functional
[3] = Haemolytic activity in human erythrocytes assessed as induction of hemolysis at 10 mM after 30 mins relative to H202; format: cell-based, Erythrocyte; conditions: read-out: Activity
Erythrocyte [4] = test: Haemolytic activity in human erythrocytes assessed as induction of hemolysis at 1.25 mM after 30 mins relative to H202; format: cell-based; conditions: erythrocyte, 0.5 h, 1250 µM
Erythrocyte [5] = test: Haemolytic activity in human erythrocytes assessed as induction of hemolysis at 0.625 mM after 30 mins relative to H202; format: cell-based; conditions: erythrocyte, 0.5 h, 625 µM
[6] = Antioxidant activity assessed as DPPH radical scavenging activity incubated in dark for 30 mins by spectrophotometric method relative to ascorbic acid; format: functional
[7] = Antioxidant activity assessed as ABTS radical scavenging activity by spectrophotometric analysis relative to control; format: functional; set-up: concentration or dose not given beside the values; conditions: dose or concentration not given here
[8] = Antioxidant activity assessed as ABTS radical scavenging activity by spectrophotometric method relative to ascorbic acid; format: functional
[9] = Pro-oxidant activity assessed as increase in bleomycin-Fe2+ induced calf thymus DNA damage at 2 mM after 1 hr by thiobarbituric acid based absorbance analysis
HCT-116 [10] = test: […] in CDK1 mRNA expression in human HCT116 cells at 100 nM after 6 hrs hrs by SYBR green dye-based qRT-PCR analysis relative to control; format: functional

N=C(N)c1ccc(-c2ccc(-c3ccc(Cl)cc3)s2)s1
GI50 (UO-31): 1.75 µM
GI50 (TK-10): 1.96 µM
GI50 (PC-3): 1.86 µM
GI50 (OVCAR-3): 1.74 µM
GI50 (MCF7): 1.29 µM
inhibition of growth at 10 µM [1]: -57.2%
GI50 (DU-145): 1.62 µM
GI50 (ACHN): 1.75 µM
GI50 (A498): 13 µM
GI50 (SK-OV-3): 1.7 µM
GI50 (NCI/ADR-RES): 1.85 µM
GI50 (OVCAR-8): 2.48 µM
GI50 (OVCAR-4): 1.67 µM
GI50 (UACC-62): 1.8 µM
GI50 (SK-MEL-2): 2.38 µM
GI50 (MDA-MB-435): 1.64 µM
GI50 (Malme-3M): 1.81 µM
GI50 (U-251): 1.83 µM
GI50 (SNB-75): 1.49 µM
GI50 (SF-295): 1.63 µM
GI50 (SF-268): 1.77 µM
GI50 (SW-620): 1.74 µM
GI50 (HT-29): 1.43 µM
GI50 (HCT-116 [2]): 1.74 µM
GI50 (COLO 205): 1.44 µM
GI50 (NCI-H522): 1.83 µM
GI50 (NCI-H460): 1.51 µM
GI50 (NCI-H322M): 1.63 µM
GI50 (NCI-H226): 2.19 µM
GI50 (HOP-62): 1.75 µM
GI50 (EKVX): 1.64 µM
GI50 (RPMI-8226): 2.04 µM
IC50 (K562): 0.67 µM
GI50 (CCRF-CEM): 1.84 µM
GI50 (Hs-578T): 2.14 µM
hemolysis at 0.5 h, 10000 µM [3]: 81.7%
Activity (Erythrocyte [4]): Non-Toxic
Activity (Erythrocyte [5]): Non-Toxic
fold change (FC) [6]: 0.8
inhibition [7]: 81.2%
fold change (FC) [8]: 0.9
Activity [9]: Active
fold change (FC) (HCT-116 [10]): 1.08

N=C(N)c1ccc(-c2ccc(-c3cc(Cl)cc(Cl)c3)s2)s1
GI50 (UO-31): 1.74 µM
GI50 (TK-10): 1.85 µM
GI50 (PC-3): 1.88 µM
GI50 (OVCAR-3): 1.81 µM
GI50 (MCF7): 1.34 µM
inhibition of growth at 10 µM [1]: -28.6%
GI50 (DU-145): 1.82 µM
GI50 (ACHN): 1.75 µM
GI50 (A498): 1.53 µM
GI50 (SK-OV-3): 3.62 µM
GI50 (NCI/ADR-RES): 2.06 µM
GI50 (OVCAR-8): 2.39 µM
GI50 (OVCAR-4): 1.91 µM
GI50 (UACC-62): 1.92 µM
GI50 (SK-MEL-2): 2.24 µM
GI50 (MDA-MB-435): 1.67 µM
GI50 (Malme-3M): 1.85 µM
GI50 (U-251): 1.86 µM
GI50 (SNB-75): 1.38 µM
GI50 (SF-295): 1.96 µM
GI50 (SF-268): 1.96 µM
GI50 (SW-620): 1.92 µM
GI50 (HT-29): 1.65 µM
GI50 (HCT-116 [2]): 1.61 µM
GI50 (COLO 205): 1.54 µM
GI50 (NCI-H522): 1.91 µM
GI50 (NCI-H460): 2.05 µM
GI50 (NCI-H322M): 1.66 µM
GI50 (NCI-H226): 30.8 µM
GI50 (HOP-62): 1.76 µM
GI50 (EKVX): 1.75 µM
GI50 (RPMI-8226): 2.33 µM
IC50 (K562): 1.29 µM
GI50 (CCRF-CEM): 2.14 µM
GI50 (Hs-578T): 2.15 µM
hemolysis at 0.5 h, 10000 µM [3]: 17%
Activity (Erythrocyte [4]): Non-Toxic
Activity (Erythrocyte [5]): Non-Toxic
fold change (FC) [6]: 0.3
inhibition [7]: 36.2%
fold change (FC) [8]: 0.4
Activity [9]: Active
fold change (FC) (HCT-116 [10]): 0.21
